Measurements as given in US5180735A, “Cyclohexanol derivatives, production and use thereof” (Takeda Chemical Industries, Ltd., priority 1989, dated 1993).

What follows are molecules tested on angiogenesis due to bFGF (rat cornea) (assay: Angiogenesis inhibitory action by the rat cornea micropocket method). Details: sustained release pellet, 20 μg sample, next to bFGF pellet (250 ng) in cornea; observed after 10 days.
Type: in vivo, male Sprague-Dawley rats
Text: Angiogenesis inhibitory action by the rat cornea micropocket method
Essentially the same method of Gimbrone et al. [J. National Cancer Institute 52:413-419 (1974)] was follows.
Specifically, adult male Sprague-Dawley rats (11 to 16 week old) were anesthetized with nembtal and locally anesthetized by instillation of xylocaine eyedrops onto the eyeball. The cornea was incised to a length of about 2 mm at about 2 mm inside from the corneal circumference by means of an injection needle, and a basic fibroblast growth factor (bFGF, bovine brain-derived, purified product, R & D Inc.) and a sustained release pellet containing the test sample were inserted side by side into the incision so that the bFGF pellet was located on the central side in the cornea. In the control group, the bFGF pellet and a sample-free pellet were inserted into the cornea. After 10 days, the cornea was observed under a stereoscopic microscope.
The sustained release pellets were prepared in the following manner. An ethylene-vinyl acetate copolymer (Takeda Chemical Industries, Ltd.) was dissolved in dichloromethane to a concentration of 8%. A 3 μl portion of the solution was air-dried on a glass dish, an aqueous solution of bFGF (250 ng) was then placed thereon and air-dried and, finally 3 μl of the above-mentioned ethylene-vinyl acetate copolymer solution was placed further thereon and air-dried to give a sandwich sheet. This sandwich sheet was made round into a bFGF pellet. The test sample pellets were prepared by dissolving each sample in ethanol to a concentration of 20 μg/2 μl, mixing the solution with 6 μl of an ethylene-vinyl acetate copolymer solution, air-drying the mixed solution on a glass dish and making the thus-obtained sheet round.
In the above Table 1, the number of rats subjected to the test was shown by denominator, and the number of rats whose […] due to bFGF was retarded or weakened by administration of the test sample was shown by numerator. In the judgment, +means an inhibition rate of 70% or more, and ±means that of less than 70% but exceeding 40%.

Q: Which results are given for `CO[C@@H]1[C@H](OC(=O)NC(=O)CCl)CC[C@](O)(CCl)[C@H]1[C@@]1(C)O[C@@H]1CC=C(C)C` [Example 1c, 4-O-(Chloroacetylcarbamoyl)-2-(1,2-epoxy-1,5-dimethyl-4-hexenyl)-3-methoxy-1-chloromethyl-1,4-cyclohexanediol]?
A: Inhibitory Rate (rats whose angiogenesis due to bFGF was retarded or weakened / rats subjected to the test): 5/5; Judgment (Angiogenesis Inhibitory Activity): + (an inhibition rate of 70% or more)

Q: How did the “Inhibitory Rate (rats whose angiogenesis due to bFGF was retarded or weakened / rats subjected to the test)” value turn out when `CO[C@@H]1[C@H](OC(=O)NC(=O)C(C)CCl)CC[C@](O)(CCl)[C@H]1[C@@]1(C)O[C@@H]1CC=C(C)C` (stereo partly drawn) [Example 4, 4-O-(3-Chloro-2-methyl-propionylcarbamoyl)-2-(1,2-epoxy-1,5-dimethyl-4-hexenyl)-3-methoxy-1-chloromethyl-1,4-cyclohexanediol] was run?
A: The value was 3/5.

Q: What about the “Judgment (Angiogenesis Inhibitory Activity)” value of the same molecule?
A: The value was “± (that of less than 70% but exceeding 40%)”.

Q: `CO[C@@H]1[C@H](O)CC[C@](O)(CSC)[C@H]1[C@@]1(C)O[C@@H]1CC=C(C)C` [Example 10, 2-(1,2-Epoxy-1,5-dimethyl-4-hexenyl)-3-methoxy-1-methylthiomethyl-1,4-cyclohexanediol] was tested. Which “Inhibitory Rate (rats whose angiogenesis due to bFGF was retarded or weakened / rats subjected to the test)” value did it give?
A: The value was 4/7.

Q: What about the “Judgment (Angiogenesis Inhibitory Activity)” value of the same molecule?
A: Its value is “± (that of less than 70% but exceeding 40%)”.

Q: For `CO[C@@H]1[C@H](O)CC[C@](O)(C[N+]2([O-])CCCC2)[C@H]1[C@@]1(C)O[C@@H]1CC=C(C)C` [Example 48, 2-(1,2-Epoxy-1,5-dimethyl-4-hexenyl)-3-methoxy-1-(pyrrolidin-1-yl)methyl-1,4-cyclohexanediol N-oxide], which “Inhibitory Rate (rats whose angiogenesis due to bFGF was retarded or weakened / rats subjected to the test)” value is on record?
A: Its value is 4/7.

Q: And the “Judgment (Angiogenesis Inhibitory Activity)” value?
A: The value was “± (that of less than 70% but exceeding 40%)”.

Q: Which results are given for `CO[C@@H]1[C@H](OC(N)=O)CC[C@](O)(C[S+](C)C)[C@H]1[C@@]1(C)O[C@@H]1CC=C(C)C` [Example 70, 4-Carbamoyloxy-2-(1,2-epoxy-1,5-dimethyl-4-hexenyl)-3-methoxy-1-dimethylsulfoniomethyl-cyclohexanol iodide]?
A: Inhibitory Rate (rats whose angiogenesis due to bFGF was retarded or weakened / rats subjected to the test): 5/6; Judgment (Angiogenesis Inhibitory Activity): + (an inhibition rate of 70% or more)

Q: Which “Inhibitory Rate (rats whose angiogenesis due to bFGF was retarded or weakened / rats subjected to the test)” value does the source give for `CO[C@@H]1[C@H](OC(=O)NC(=O)CSc2nc3ccccc3s2)CC[C@](O)(CCl)[C@H]1[C@@]1(C)O[C@@H]1CC=C(C)C` [Example 91] here?
A: Its value is 6/6.

Q: And the “Judgment (Angiogenesis Inhibitory Activity)” value?
A: The value was “+ (an inhibition rate of 70% or more)”.

These molecules were tested on M5076 cells (assay: Antitumor test in mice inoculated subcutaneously with M5076 cells (tumor size, T/C)). Details: 20 mg/kg, subcutaneous, 10 times in total; tumor size after 13 days.
Type: in vivo, C57BL/6 mice
Procedure: C57BL/6 mice (a group consisting of 6 mice) were inoculated subcutaneously at the dorsolateral area with 2×10^6 M5076 cells, and then a test compound dissolved in a 5% gum arabic physiological saline solution was subcutaneously administered 10 times in total, i.e. 1st, 2nd, 4th, 5th, 6th, 7th, 8th, 9th, 11th and 12th day after the inoculation. After 13 days, the major axis (a) and the minor axis (b) of the tumor tissue were measured to determine the tumor size by the calculation formula of a×b^2 ×1/2. The ratio of the tumor size thus calculated to the tumor size of animals in the control group was shown by T/C (%).

Q: How did the “T/C (%) (ratio of tumor size to control group)” value turn out when “4-(N'-chloroacetylureido)-2-(1,2-epoxy-1,5-dimethyl-4-hexenyl)-1-(1,3-dihydrobenzo[c]thiophen-2-ylio)methyl-3-methoxycyclohexanol chloride [Example 100]” was run?
A: The value was 22%.

Q: For `CO[C@@H]1[C@H](OC(=O)NC(=O)CCl)CC[C@](O)(C[S+](C)Cc2cccc(Br)c2)[C@H]1[C@@]1(C)O[C@@H]1CC=C(C)C` (single isomer, unassigned) [Example 65A, 1-(3-bromobenzyl)methylsulfoniomethyl-4-(N-chloroacetylcarbamoyloxy)-2-(1,2-epoxy-1,5-dimethyl-4-hexenyl)-3-methoxycyclohexanol bromide], which “T/C (%) (ratio of tumor size to control group)” value is on record?
A: The value was 9%.

Q: Which “T/C (%) (ratio of tumor size to control group)” value does the source give for `CO[C@@H]1[C@H](OC(=O)NC(=O)CCl)CC[C@](O)(C[S+](C)Cc2cccc(Br)c2)[C@H]1[C@@]1(C)O[C@@H]1CC=C(C)C` (single isomer, unassigned) [Example 65B, 1-(3-bromobenzyl)methylsulfoniomethyl-4-(N-chloroacetylcarbamoyloxy)-2-(1,2-epoxy-1,5-dimethyl-4-hexenyl)-3-methoxycyclohexanol bromide] here?
A: Its value is 37%.

Same assay, conditions: Mus musculus, M5076, sc, 312 h, 20 mg/kg, subcutaneous, 10 times in total; tumor size after 13 days; read-out: T/C (%) (ratio of tumor size to control group)

Q: For `CO[C@@H]1[C@H](OC(=O)NC(=O)CCl)CC[C@](O)(C[S+](C)Cc2ccc(Br)cc2)[C@H]1[C@@]1(C)O[C@@H]1CC=C(C)C` (stereo partly drawn) [Example 60, 1-(4-Bromobenzyl)methylsulfoniomethyl-4-(N-chloroacetylcarbamoyloxy)-2-(1,2-epoxy-1,5-dimethyl-4-hexenyl)-3-methoxycyclohexanol bromide], which response vs control in vivo at 20 mg/kg is on record?
A: Its response vs control in vivo at 20 mg/kg is 21%.

Q: With `CO[C@@H]1[C@H](OC(=O)NC(=O)CCl)CC[C@](O)(C[S+](C)Cc2ccc(Cl)cc2)[C@H]1[C@@]1(C)O[C@@H]1CC=C(C)C` (stereo partly drawn) [Example 61, 4-(N-Chloroacetylcarbamoyloxy)-1-(4-chlorobenzyl)methylsulfoniomethyl-2-(1,2-epoxy-1,5-dimethyl-4-hexenyl)-3-methoxycyclohexanol bromide] as the molecule, how does the response vs control in vivo at 20 mg/kg read?
A: The response vs control in vivo at 20 mg/kg was 27%.

Q: How did the response vs control in vivo at 20 mg/kg turn out when `CO[C@@H]1[C@H](OC(=O)NC(=O)CCl)CC[C@](O)(C[S+](C)Cc2ccc(F)cc2)[C@H]1[C@@]1(C)O[C@@H]1CC=C(C)C` (stereo partly drawn) [Example 62, 4-(N-Chloroacetylcarbamoyloxy)-2-(1,2-epoxy-1,5-dimethyl-4-hexenyl)-1-(4-fluorobenzyl)methylsulfoniomethyl-3-methoxycyclohexanol bromide] was run?
A: The response vs control in vivo at 20 mg/kg was 29%.

Q: `CO[C@@H]1[C@H](OC(=O)NC(=O)CCl)CC[C@](O)(C[S+](C)Cc2cccc(Br)c2)[C@H]1[C@@]1(C)O[C@@H]1CC=C(C)C` (stereo partly drawn) [Example 64, 1-(3-Bromobenzyl)methylsulfoniomethyl-4-(N-chloroacetylcarbamoyloxy)-2-(1,2-epoxy-1,5-dimethyl-4-hexenyl)-3-methoxycyclohexanol bromide] was tested. Which response vs control in vivo at 20 mg/kg did it give?
A: The response vs control in vivo at 20 mg/kg was 24%.

Q: Which response vs control in vivo at 20 mg/kg does the source give for `CO[C@@H]1[C@H](OC(=O)NC(=O)CCl)CC[C@](O)(C[S+](C)Cc2ccccc2)[C@H]1[C@@]1(C)O[C@@H]1CC=C(C)C` (stereo partly drawn) [Example 76, 1-Benzylmethylsulfoniomethyl-4-chloroacetylcarbamoyloxy-2-(1,2-epoxy-1,5-dimethyl-4-hexenyl)-3-methoxycyclohexanol hydrogen L-tartrate] here?
A: Its response vs control in vivo at 20 mg/kg is 29%.

Q: `CO[C@@H]1[C@H](OC(=O)NC(=O)CCl)CC[C@](O)(C[S+]2Cc3ccccc3C2)[C@H]1[C@@]1(C)O[C@@H]1CC=C(C)C` [Example 82, 4-(N-Chloroacetylcarbamoyloxy)-2-(1,2-epoxy-1,5-dimethyl-4-hexenyl)-1-(1,3-dihydrobenzo[c]thiophen-2-ylio)methyl-3-methoxycyclohexanol chloride] was tested. Which response vs control in vivo at 20 mg/kg did it give?
A: Its response vs control in vivo at 20 mg/kg is 9%.

Q: `CO[C@@H]1[C@H](OC(=O)NC(=O)CCl)CC[C@](O)(C[S+]2CC3CC=CCC3C2)[C@H]1[C@@]1(C)O[C@@H]1CC=C(C)C` (stereo partly drawn) [Example 104, 4-(N-chloroacetylcarbamoyloxy)-2-(1,2-epoxy-1,5-dimethyl-4-hexenyl)-1-(1,3,3a,4,7,7ahexahydrobenzo[c]thiophen-2-ylio)methyl-3-methoxycyclohexanol chloride] was tested. Which response vs control in vivo at 20 mg/kg did it give?
A: Its response vs control in vivo at 20 mg/kg is 16%.

Same assay, conditions: Mus musculus, M5076, sc, 312 h, 30 mg/kg, subcutaneous, 10 times in total; tumor size after 13 days; read-out: T/C (%) (ratio of tumor size to control group)

Q: For `CO[C@@H]1[C@H](OC(=O)NC(=O)CCl)CC[C@](O)(CCl)[C@H]1[C@@]1(C)O[C@@H]1CC=C(C)C` [Example 1c, 4-O-(Chloroacetylcarbamoyl)-2-(1,2-epoxy-1,5-dimethyl-4-hexenyl)-3-methoxy-1-chloromethyl-1,4-cyclohexanediol], which response vs control in vivo at 30 mg/kg is on record?
A: The response vs control in vivo at 30 mg/kg was 20%.

Q: `C=CC(=O)NC(=O)O[C@@H]1CC[C@](O)(CCl)[C@@H]([C@@]2(C)O[C@@H]2CC=C(C)C)[C@@H]1OC` [Example 2, 4-O-(Acryloylcarbamoyl)-2-(1,2-epoxy-1,5-dimethyl-4-hexenyl)-3-methoxy-1-chloromethyl-1,4-cyclohexanediol] was tested. Which response vs control in vivo at 30 mg/kg did it give?
A: Its response vs control in vivo at 30 mg/kg is 20%.

Q: For `CO[C@@H]1[C@H](OC(=O)NC(=O)CCl)CC[C@](O)(C[S+](C)C)[C@H]1[C@@]1(C)O[C@@H]1CC=C(C)C` [Example 13, 4-O-(Chloroacetylcarbamoyl)-2-(1,2-epoxy-1,5-dimethyl-4-hexenyl)-3-methoxy-1-dimethylsulfoniomethyl-1,4-cyclohexanediol iodide], which response vs control in vivo at 30 mg/kg is on record?
A: Its response vs control in vivo at 30 mg/kg is 36%.

Q: Which response vs control in vivo at 30 mg/kg does the source give for `CO[C@@H]1[C@H](OC(=O)NC(=O)CCl)CC[C@](O)(C[S+](C)Cc2ccccc2)[C@H]1[C@@]1(C)O[C@@H]1CC=C(C)C` (stereo partly drawn) [Example 16, 4-O-(N-chloroacetylcarbamoyl)-2-(1,2-epoxy-1,5-dimethyl-4-hexenyl)-3-methoxy-1-benzylmethylsulfoniomethyl-1,4-cyclohexanediol bromide] here?
A: The response vs control in vivo at 30 mg/kg was 20%.

Q: With `C#CC[S+](C)C[C@@]1(O)CC[C@@H](OC(=O)NC(=O)CCl)[C@@H](OC)[C@@H]1[C@@]1(C)O[C@@H]1CC=C(C)C` (stereo partly drawn) [Example 17, 4-O-(Chloroacetylcarbamoyl)-2-(1,2-epoxy-1,5-dimethyl-4-hexenyl)-3-methoxy-1-(2-propinyl)-methylsulfoniomethyl-1,4-cyclohexanediol bromide] as the molecule, how does the response vs control in vivo at 30 mg/kg read?
A: The response vs control in vivo at 30 mg/kg was 21%.
